{
  "source": "patent US20190091187A1",
  "about": "(Orbus Therapeutics, Inc., priority 2016, published 2019)",
  "key": {"[1]": {"tested_on": "Big Blue Rat-2 cells", "details": "9.1 at 0 mM, cited from earlier work"}, "[2]": {"tested_on": "low-grade gliomas", "details": "adjuvant chemotherapy; recurrent tumors; driver mutations in RB and AKT-mTOR pathways; cited from earlier work"}, "[3]": {"tested_on": "neuroblastoma cells", "details": "arrest of cell division between G1 and mitosis; cited from earlier work"}, "[4]": {"tested_on": "newly diagnosed AG and GBM patients", "assay": "Phase 3 study of eflornithine with PCV versus PCV, adverse events", "format": "in vivo, human", "details": "Eflornithine-PCV minus PCV, N = 500", "description": "As used herein, the term “toxicity” refers to any one of the side effects referred to above in Table 2, regardless of the severity of the side effect or its possible effect on the course of treatment."}, "[5]": {"tested_on": "biopsied skin actinic keratosis", "details": "topical, compared to placebo-treated skin, cited from earlier work"}, "[6]": {"tested_on": "AG and GBM patients treated at recurrence", "details": "3.6 g/m^2 every 8 hours, N = 89, cited from earlier work"}},
  "note": "Read-outs that look alike come from different tables or passages of the source.",
  "data": [
    {"molecule": "Cn1nnc2c(C(N)=O)ncn2c1=O", "note": "[TMZ, temozolomide]", "values": [
      {"measurement": "lacI mutation frequency", "setting": "[1]; 0.5 mM TMZ", "result": 48.9},
      {"measurement": "lacI mutation frequency", "setting": "[1]; 1 mM TMZ", "result": 89.7},
      {"measurement": "patients whose tumors followed an alternative evolutionary path to high-grade glioma with hypermutation", "setting": "[2]", "result": "6 of 10"}
    ]},
    {"molecule": "eflornithine", "values": [
      {"measurement": "effect on intracellular proteins p21 and p27kip-1", "setting": "[3]", "result": "increase"},
      {"measurement": "Anemia, Excess AEs due to Eflornithine", "setting": "[4]; Toxicity Grade 1", "result": 12.5, "unit": "%"},
      {"measurement": "Anorexia, Excess AEs due to Eflornithine", "setting": "[4]; Toxicity Grade 1", "result": "−1.5", "unit": "%"},
      {"measurement": "Constipation, Excess AEs due to Eflornithine", "setting": "[4]; Toxicity Grade 1", "result": "−1.9", "unit": "%"},
      {"measurement": "Diarrhea, Excess AEs due to Eflornithine", "setting": "[4]; Toxicity Grade 1", "result": 25.4, "unit": "%"},
      {"measurement": "Fatigue, Excess AEs due to Eflornithine", "setting": "[4]; Toxicity Grade 1", "result": 4.7, "unit": "%"},
      {"measurement": "Granulocytopenia, Excess AEs due to Eflornithine", "setting": "[4]; Toxicity Grade 1", "result": 2.4, "unit": "%"},
      {"measurement": "Headache, Excess AEs due to Eflornithine", "setting": "[4]; Toxicity Grade 1", "result": "−1.9", "unit": "%"},
      {"measurement": "Hearing loss, Excess AEs due to Eflornithine", "setting": "[4]; Toxicity Grade 1", "result": 0.0, "unit": "%"},
      {"measurement": "Leukopenia, Excess AEs due to Eflornithine", "setting": "[4]; Toxicity Grade 1", "result": "−3.4", "unit": "%"},
      {"measurement": "Nausea only, Excess AEs due to Eflornithine", "setting": "[4]; Toxicity Grade 1", "result": 1.0, "unit": "%"},
      {"measurement": "Pruritis and itching, Excess AEs due to Eflornithine", "setting": "[4]; Toxicity Grade 1", "result": "−0.7", "unit": "%"},
      {"measurement": "Thrombocytopenia, Excess AEs due to Eflornithine", "setting": "[4]; Toxicity Grade 1", "result": 4.6, "unit": "%"},
      {"measurement": "Vomiting, Excess AEs due to Eflornithine", "setting": "[4]; Toxicity Grade 1", "result": 5.2, "unit": "%"},
      {"measurement": "Anemia, Excess AEs due to Eflornithine", "setting": "[4]; Toxicity Grade 2", "result": 15.6, "unit": "%"},
      {"measurement": "Anorexia, Excess AEs due to Eflornithine", "setting": "[4]; Toxicity Grade 2", "result": 2.5, "unit": "%"},
      {"measurement": "Constipation, Excess AEs due to Eflornithine", "setting": "[4]; Toxicity Grade 2", "result": "−0.7", "unit": "%"},
      {"measurement": "Diarrhea, Excess AEs due to Eflornithine", "setting": "[4]; Toxicity Grade 2", "result": 17.4, "unit": "%"},
      {"measurement": "Fatigue, Excess AEs due to Eflornithine", "setting": "[4]; Toxicity Grade 2", "result": 6.9, "unit": "%"},
      {"measurement": "Granulocytopenia, Excess AEs due to Eflornithine", "setting": "[4]; Toxicity Grade 2", "result": 1.1, "unit": "%"},
      {"measurement": "Headache, Excess AEs due to Eflornithine", "setting": "[4]; Toxicity Grade 2", "result": 1.3, "unit": "%"},
      {"measurement": "Hearing loss, Excess AEs due to Eflornithine", "setting": "[4]; Toxicity Grade 2", "result": 1.2, "unit": "%"},
      {"measurement": "Leukopenia, Excess AEs due to Eflornithine", "setting": "[4]; Toxicity Grade 2", "result": 1.2, "unit": "%"},
      {"measurement": "Nausea only, Excess AEs due to Eflornithine", "setting": "[4]; Toxicity Grade 2", "result": 0.0, "unit": "%"},
      {"measurement": "Pruritis and itching, Excess AEs due to Eflornithine", "setting": "[4]; Toxicity Grade 2", "result": 0.9, "unit": "%"},
      {"measurement": "Thrombocytopenia, Excess AEs due to Eflornithine", "setting": "[4]; Toxicity Grade 2", "result": 10.5, "unit": "%"},
      {"measurement": "Vomiting, Excess AEs due to Eflornithine", "setting": "[4]; Toxicity Grade 2", "result": 1.1, "unit": "%"},
      {"measurement": "Anemia, Excess AEs due to Eflornithine", "setting": "[4]; Toxicity Grade 3", "result": 4.5, "unit": "%"},
      {"measurement": "Anorexia, Excess AEs due to Eflornithine", "setting": "[4]; Toxicity Grade 3", "result": 1.2, "unit": "%"},
      {"measurement": "Constipation, Excess AEs due to Eflornithine", "setting": "[4]; Toxicity Grade 3", "result": 0.4, "unit": "%"},
      {"measurement": "Diarrhea, Excess AEs due to Eflornithine", "setting": "[4]; Toxicity Grade 3", "result": 6.0, "unit": "%"},
      {"measurement": "Fatigue, Excess AEs due to Eflornithine", "setting": "[4]; Toxicity Grade 3", "result": 0.8, "unit": "%"},
      {"measurement": "Granulocytopenia, Excess AEs due to Eflornithine", "setting": "[4]; Toxicity Grade 3", "result": "−3.9", "unit": "%"},
      {"measurement": "Headache, Excess AEs due to Eflornithine", "setting": "[4]; Toxicity Grade 3", "result": 0.4, "unit": "%"},
      {"measurement": "Hearing loss, Excess AEs due to Eflornithine", "setting": "[4]; Toxicity Grade 3", "result": 0.8, "unit": "%"},
      {"measurement": "Leukopenia, Excess AEs due to Eflornithine", "setting": "[4]; Toxicity Grade 3", "result": 0.0, "unit": "%"},
      {"measurement": "Nausea only, Excess AEs due to Eflornithine", "setting": "[4]; Toxicity Grade 3", "result": 0.9, "unit": "%"},
      {"measurement": "Pruritis and itching, Excess AEs due to Eflornithine", "setting": "[4]; Toxicity Grade 3", "result": "−0.3", "unit": "%"},
      {"measurement": "Thrombocytopenia, Excess AEs due to Eflornithine", "setting": "[4]; Toxicity Grade 3", "result": 3.5, "unit": "%"},
      {"measurement": "Vomiting, Excess AEs due to Eflornithine", "setting": "[4]; Toxicity Grade 3", "result": 4.5, "unit": "%"},
      {"measurement": "Anemia, Excess AEs due to Eflornithine", "setting": "[4]; Toxicity Grade 4", "result": 2.0, "unit": "%"},
      {"measurement": "Anorexia, Excess AEs due to Eflornithine", "setting": "[4]; Toxicity Grade 4", "result": 0.0, "unit": "%"},
      {"measurement": "Constipation, Excess AEs due to Eflornithine", "setting": "[4]; Toxicity Grade 4", "result": 0.4, "unit": "%"},
      {"measurement": "Diarrhea, Excess AEs due to Eflornithine", "setting": "[4]; Toxicity Grade 4", "result": 0.8, "unit": "%"},
      {"measurement": "Fatigue, Excess AEs due to Eflornithine", "setting": "[4]; Toxicity Grade 4", "result": 0.0, "unit": "%"},
      {"measurement": "Granulocytopenia, Excess AEs due to Eflornithine", "setting": "[4]; Toxicity Grade 4", "result": 1.8, "unit": "%"},
      {"measurement": "Headache, Excess AEs due to Eflornithine", "setting": "[4]; Toxicity Grade 4", "result": 0.0, "unit": "%"},
      {"measurement": "Hearing loss, Excess AEs due to Eflornithine", "setting": "[4]; Toxicity Grade 4", "result": 0.0, "unit": "%"},
      {"measurement": "Leukopenia, Excess AEs due to Eflornithine", "setting": "[4]; Toxicity Grade 4", "result": 0.9, "unit": "%"},
      {"measurement": "Nausea only, Excess AEs due to Eflornithine", "setting": "[4]; Toxicity Grade 4", "result": 0.0, "unit": "%"},
      {"measurement": "Pruritis and itching, Excess AEs due to Eflornithine", "setting": "[4]; Toxicity Grade 4", "result": 0.0, "unit": "%"},
      {"measurement": "Thrombocytopenia, Excess AEs due to Eflornithine", "setting": "[4]; Toxicity Grade 4", "result": 2.1, "unit": "%"},
      {"measurement": "Vomiting, Excess AEs due to Eflornithine", "setting": "[4]; Toxicity Grade 4", "result": "−1.2", "unit": "%"},
      {"measurement": "reduced the percentage of p53-positive cells", "setting": "[5]; P=0.04", "result": 22, "unit": "%"},
      {"measurement": "reduction of the frequency of p53 mutations", "setting": "[5]", "result": "not the frequency of p53 mutations"},
      {"measurement": "Ototoxicity, patients (%)", "setting": "[6]; Toxicity Grade 1", "result": "(7.9) %"},
      {"measurement": "Ototoxicity, patients n", "setting": "[6]; Toxicity Grade 1", "result": 7},
      {"measurement": "Ototoxicity, patients (%)", "setting": "[6]; Toxicity Grade 2", "result": "(5.6) %"},
      {"measurement": "Ototoxicity, patients n", "setting": "[6]; Toxicity Grade 2", "result": 5},
      {"measurement": "Ototoxicity, patients (%)", "setting": "[6]; Toxicity Grade 3", "result": "(6.7) %"},
      {"measurement": "Ototoxicity, patients n", "setting": "[6]; Toxicity Grade 3", "result": 6}
    ]}
  ]
}
